Patent US9096555B2, “Methods for treating vascular leak syndrome” (Aerpio Therapeutics, Inc., priority 2009, dated 2015)
“Also recorded” adds a separate entry of the source.

How the values were obtained:
IL-2 induced VLS = assay: IL-2 induced vascular leak syndrome in mice (blood pressure, shock, mortality); type: in vivo; details: then 20 mg/kg for 3 days
Description: Twenty-five mice were used for the following experiment. Five are selected as the control and received no treatment. The remaining twenty mice were divided into four groups of five mice each and dosed as follows over a period of 5 days:
Tie-2 signal amplifier at 40 mg/kg for the first 2 days, then at 20 mg/kg for 3 days.
(VSL mechanistic analysis.

[1] = test system: IL-2 induced hypotension and death; assay: Rescue of mice from IL-2 induced hypotension and death (systolic blood pressure); type: in vivo; details: C3H/HeN female mice; 400,000 IU of IL-2 and 40 mg/kg D91; after 5 days of treatment; FIG. 5
Description: A represents the systolic blood pressure of C3H/HeN female mice treated with vehicle control. […] Measurements were taken after 5 days of treatment.
A represents 0 mg/kg D91, B represents 1 mg/kg D91, C represents 3 mg/kg D91, D represents 10 mg/kg D91, and E represents 30 mg/kg D91.

[2] = test system: LPS-induced acute kidney injury; assay: Liposaccharide (LPS) induced vascular leak model: acute kidney injury (BUN, renal neutrophil infiltration); type: in vivo; details: male C57BL6 mice
Description: FIG. 7 depicts the level of blood urine nitrogen (BUN) in male C57BL6 mice injected i.p. with 0.2 mg E. coli lipopolysaccharides per 25 g body weight at 0 hours. Line (◯) represents mice receiving only LPS and line (●) represents mice receiving LPS and 50 mg/kg of D91 at 0, 8, and 16 hours.
FIG. 8 depicts the level of LPS-induced renal neutrophil infiltration at 24 hours in male C57BL6 mice injected i.p. with 0.2 mg E. coli lipopolysaccharides per 25 g body weight at 0 hours. A depicts the neutrophil infiltration in sham (conrol), B depicts the neutrophil infiltration in male C57BL6 mice injected i.p. with 0.2 mg E. coli lipopolysaccharides per 25 g body weight and 50 mg/kg of D91, C depicts mice receiving only LPS.
The following liposaccharide induced vascular leakage model can be used to confirm the ability of the disclosed compounds to decrease the effects of vascular leak syndrome caused by pathogens. […]
Male C57BL6 mice, 9 to 10 weeks old, were injected i.p. with 0.2 mg E. Coli lipopolysaccharide per 25 g body weight at time 0. […] Serum samples were analyzed for blood urea nitrogen (BUN) as a marker of kidney function.
Tissue samples from the animals were analyzed by high powered field microscopy to determine the number of polymorphonuclear leukocytes present.

[3] = test system: LPS-induced renal vascular leak; assay: LPS-induced renal vascular leak, 70 kDa fluorescent fixable dextran; type: in vivo; details: mice; LPS at time 0, D91 at 1, 6 and 16 h; sacrifice at 24 hours; FIG. 10c
Description: FIG. 10a is a micrograph of a renal section from a mouse treated with vehicle control that is subsequently injected with 70 kDa fluorescent fixable dextran by intravenous catheter 2 minutes prior to sacrifice. G indicates glomerular capillaries where the dye should normally be contained.
FIG. 10b is a micrograph showing the vascular leakage in cells of a renal section from a mouse treat with LPS that is subsequently injected with 70 kDa fluorescent fixable dextran by intravenous catheter 2 minutes prior to sacrifice.
The pattern of staining in this section is similar to 10a.
Phosphatase inhibition by the disclosed PTP-β inhibitors reduces LPS-induced renal vascular leak. Mice were injected with LPS at time 0 and D91 or vehicle at 1, 6, and 16 h. Two minutes prior to sacrifice at 24 hours 70 kDa fluorescent fixable dextrans were administered by intravenous catheter. […] FIG. 10a is a micrograph of the control sample for the 70 kDa sample wherein the Letter “G” represents glomerular capillaries where the dye should normally be contained. FIG. 10b represents a renal section taken from an LPS treated animal and FIG. 10c represents a renal section taken from an animal treated with LPS and D91.

[4] = test system: pAKT and pERK1/2 in EA.hy962 cells; assay: Western blot analysis of pAKT and pERK1/2 in EA.hy962 cells; type: cell-based; details: EA.hy962 cells cultured with varying amounts of D91 for 10 minutes; FIG. 9a
Description: FIG. 9a depicts a Western blot analysis showing the increase in pAKT and pERK1/2 when EA.hy962 cells were cultured in the presence of varying amounts of […] for 10 minutes. FIG. 9b depicts a Western blot analysis showing the levels of pAKT, pERK1/2 and β-Actin when EA.hy962 cells were cultured in the presence of 10 μg/mL […] from start (T=0) to 120 minutes.

brain edema after tMCAO = assay: Vasogenic edema after transient focal cerebral ischemia (tMCAO); type: in vivo, Sprague-Dawley rats; details: rats; tMCAO 60 min; 15 mg/kg t.i.d. s.c. starting 1 hour after stroke onset; after the 48 hour MRI
Description: 30 adult male Sprague-Dawley rats purchased from Charles River, Germany and weighing 250-330 g were used for the experiment. Animals were housed at a standard temperature (22±1° C.) and in a light-controlled environment (lights on from 7 am to 8 pm) with ad libitum access to food and water.
Animals were grouped as follows:
• Group A: 15 rats treated with Vehicle (2 mL/kg, t.i.d., s.c.) starting 1 hour after stroke onset • Group B: 15 rats treated with AKB-9778-AS (15 mg/kg, t.i.d., s.c.) starting 1 hour after stroke onset tMCAO
Transient focal cerebral ischemia was produced by MCA occlusion in male Sprague-Dawley rats according to Koizumi with modifications (Koizumi et al., Jpn. J. Stroke 8:1-8, 1986). […] The rats were carefully monitored for possible post-surgical complications after the tMCAO. […]
D91 or vehicle was administered s.c. three times a day. […] The body weight of each animal is measured daily. […]
Tissue viability and vasogenic edema was determined using absolute T2 MRI. […] In addition to absolute T2, spin density (amount of MRI visible protons, indicator of vasogenic edema) ratio of ipsi and contralateral ROI's was determined by extrapolating signal intensity at TE=0 from multiple TE data (intercept of T2 fitting).
For the determination of infarct volume, the same acquired T2-weighted images were analyzed using in-house written Matlab based software for morphometric measurement. […]

COC(=O)N[C@@H](Cc1ccccc1)C(=O)N[C@@H](Cc1ccc(NS(=O)(=O)O)cc1)c1csc(-c2cccs2)n1 [Compound D91, 4-{(S)-2-[(S)-2-(methoxycarbonylamino)-3-phenylpropanamido]-2-[2-(thiophen-2-yl)thiazol-4-yl]ethyl}phenylsulfamic acid]
blood pressure (IL-2 induced VLS; IL-2 180,000 or 400,000 IU for 5 days plus D91 40 mg/kg first 2 days, FIG. 1): little effect on blood pressure | clinical symptoms of shock (IL-2 induced VLS; high dose IL-2 (400,000 IU, 5 days) plus D91 40 mg/kg first 2 days, FIG. 2): no signs of shock | IL-2 induced mortality (IL-2 induced VLS; high dose IL-2 (400,000 IU, 5 days) plus D91 40 mg/kg first 2 days, FIG. 3): survived | rescue from IL-2 induced hypotension and death (systolic blood pressure) [1]: rescue of mice from IL-2 induced hypotension and death | blood urine nitrogen (BUN) level ([2]; LPS 0.2 mg per 25 g i.p., D91 50 mg/kg at 0, 8 and 16 hours, at 24 hours, FIG. 7): less than 80 mg/dL | number of PMN cells present (renal neutrophil infiltration), high powered field microscopy ([2]; LPS plus D91 50 mg/kg, 24 hours, average, FIG. 8): 12 | extrusion of 70 kDa fluorescent dextran dye beyond the small peritubular capillaries (renal vascular leak) [3]: vascular integrity is preserved; also recorded: reduced | pAKT and pERK1/2 (Western blot) [4]: increase | brain tissue wet weight in ischemic hemisphere (edema) (brain edema after tMCAO): significantly lower
